We go through three molecules from patent publication US20230099969A1, “TWO-PHOTON FLUORESCENT PROBE COMPOUND SELECTIVE FOR AMYLOID BETA PLAQUES AND METHOD FOR IMAGING AMYLOID BETA PLAQUES USING SAME” (Korea University Research and Business Foundation, priority 2020, published 2023).

In brackets after ≈: the same amount, converted by molar mass.

A short description of one data set: in vitro. As to conditions: PAMPA.
Data set [1] is described as follows: Fluorescence response to potential interferents. As to conditions: metal ions, amino acids, thiols 20 μM in PBS, λem 566 nm. How it is done: (§1) To measure spectra in the presence of analytes, stock solutions of ThT and IRI-1 were prepared in DMF and added to solutions of the analytes in PBS to finally obtain a solution containing 2% DMF. All emission spectra were obtained after 2 min stirring at 37° C. The excitation and emission slit widths were 3/5.

Data set [2] has as its target T1, Aβ plaques (Homo sapiens, UniProt P05067).
T1 construct: from tissue; host or cells: brain of 5xFAD-Tg mice: ex vivo slices at 11 months, in vivo frontal cortex at 10-12 months
The experiment in a line: Ex vivo two-photon microscopy imaging of brain slices. Further details: species or system 5xFAD-Tg mice. The following applies: 20 μM, 2 h incubation, n=15. How it is done:
Brain tissues were isolated from 11-month-old 5xFAD-Tg mice. All animal protocols were approved by the Institutional Animal Care and Use Committee (IACUC) of KyungHee University, Korea (Approval number: KHUSAP (SE)-18-123). The isolated brain was immediately frozen with dry ice and horizontally sectioned by using a surgical blade (No. 10, […] safety razor Co., LTD, Japan). Sectioned brain tissues were immersed in a DMEM-buffered solution containing IBC 2 or IRI-1 (20 μM), and then incubated at 37° C. for different durations (0.5 h, 1 h and 2 h). After incubation, the brain tissues were washed with PBS (×3) and fixed in 4% paraformaldehyde solution until TPM imaging, using upright microscopy (Leica, Nussloch, Germany). […] TPM images were obtained by collecting the fluorescence from an emission channel of 580-779 nm. To compare the plaque and background signal of IBC 2 and IRI-1, TPM images analyzed by using Leica software. 15 Aβ-plaque regions as well as 15 background regions were randomly chosen for each dye at each incubation time. Bootstrap resampling (n=100,000) was performed on the 15 Aβ and background samples to estimate the population distribution of the signal to background ratios for each of the dyes at the different incubation times as well as to estimate the significance level of the difference of these population distributions.

Data set [3] is described as follows: pH-dependent absorbance, pKa fitting. Type of data set: physicochemical. The following applies: PBS (10 mM) with pH adjustment; absorbance at 405 nm, pH 2-10, PBS 10 mM. Here is the method: The absorbance of IRI-1 (10 μM) was recorded in PBS (10 mM), with pH adjustment, to maintain a constant salt concentration.
The next data set relates to SH-SYSY cells. Description: Cell viability MTT assay. Type of data set: cell-based, human. As to conditions: concentrations up to 50 μM, 24 h. How it is done:
Cell viability was assessed by the MTT (3-4,5-dimethylthiazol-2-yl)-2,5-diphenyltetrazolium bromide) assay. SH-SYSY cells (1×10^4 per well) were treated with various concentrations of IRI-1 in a 96-well plate for 24 h at 37° C.

Data set [4] addresses T2, human serum albumin (HSA) (Homo sapiens, UniProt P02768).
T2 construct: purchased
Description: Fluorescence in the presence of HSA. As to conditions: HSA 20 μM, PBS pH 7.4, 2% DMF. Here is the method: as §1

Another data set can be described thus: Photostability in DMF. Type of data set: physicochemical. The following applies: solution in DMF, halogen lamp irradiation 35 min. Here is the method:
A solution of IRI-1 with an absorbance of 1.0 at the maximum absorbance wavelength was prepared in DMF. A 3100 K halogen lamp (Olympus LG-PS2; 12 V, 100 W) was used for irradiation and the absorbance was recorded at 5 min intervals for 35 min.

The next data set concerns the target T3, Aβ fibrils (Homo sapiens, UniProt P05067).
T3 construct: lyophilized Aβ1-42 peptides were dissolved in 100% HFIP; purchased GenicBio Limited (Shanghai, China)
The experiment in a line: Fluorescence response in the presence of Aβ fibrils. The following applies: Aβ fibrils 20 μM versus PBS containing 2% DMF. How it is done:
as §1
(§2) Aβ1-42 protein was prepared following a literature procedure (J. Hatai, L. Motiei, D. Margulies, J. Am. Chem. Soc. 2017, 139, 2136-2139). Briefly, lyophilized Aβ1-42 peptides were dissolved in 100% HFIP (1,1,1,3,3,3-hexafluoro-2-isopropanol) at a concentration of 2 mg mL^−1 and incubated at 25° C. for 2 h. After incubation, solution was removed under a gentle flow of argon. The peptide was dried using a lyophilizer for 40 h. AO (1 mg) was resuspended in aqueous NaOH (0.5 mL, 2 mM) and sonicated at 0° C. for 10 min. HFIP/NaOH-treated AO samples were diluted to 200 μM with PBS (0.6 mL, […], pH=7.4) and agitated using a shaker (Biofree) for 30 h. The solution was diluted to 20 μM with PBS (9.9 mL, 20 mM, pH=7.4), prior to each experiment.

Data set [5] deals with T1, Aβ plaques. The experiment in a line: In vivo two-photon microscopy imaging. Also on record: species or system 5xFAD-Tg mice; depth up to which individual Aβ plaques could be detected: unit not given here. Here is the method: All animal studies and maintenance were approved by the Institutional Animal Care and Use Committee (IACUC) of Seoul National University, Korea. 10-12-month-old 5xFAD (Tg6799; Jackson Lab Stock No. 006554) AD model mice were anesthetized with the mixture of Tiletamine-Zolazepam (Virbac, France) and Xylazine (Bayer Korea, Korea) via intramuscular (IM) injection (1.2 mg kg^−1) and then fixed on a customized stereotactic heating plate (37° C., Live cell instrument, Seoul, Korea). The mouse scalp was sterilized with Povidone Iodine (Firson, Korea) and then removed. A drop of Epinephrine was applied to the incision site to relieve local pain and bleeding. The periosteum was also removed in this step. When the scalp and periosteum were clearly removed and the skull dried, a small hole (3 mm diameter) was carefully made in the parietal bone with a microdrill. A 5 mm round coverslip was attached to the surgery site with Loctite 454 and dental acrylate was applied around the site. A solution of IRI-1 in 25% DMSO/PBS (5 mg kg^−1) was injected intraperitoneally (i.p.) before TPM imaging. TPM live imaging was conducted using an LSM 7 MP two-photon laser-scanning microscope (Carl Zeiss Microscopy GmbH, Germany) equipped with a Chameleon-Ultra-II laser system (Coherent, USA). An appropriately tuned laser (780-920 nm wavelength, 30 mW intensity) was applied to the imaging site transiently. Emission signals were obtained through the red channel (555-610 nm), or blue channel (485-490 nm) NDD filter set. TPM images were processed and 3D reconstructed using Volocity Software (Perkin-Elmer, Waltham, Mass., USA).

The target of data set [6] is T4, bovine serum albumin (BSA) (Bos taurus, UniProt P02769).
T4 construct: purchased
The experiment in a line: Fluorescence in the presence of BSA. The following applies: BSA 20 μM, PBS pH 7.4, 2% DMF. Here is the method: as §1

A short description of data set [7]: Fluorescence in mouse brain homogenates. How it is done: as §1
Male ICR mice (10-weeks-old) from Daehan Biolink Co. Ltd. (Eumseong, Korea) were used in this experiment. The mice were accommodated at a constant temperature (23±1° C.), humidity (60±10%), and a 12 h light/dark cycle with free access to water and food. The mice were handled in accordance with the Principle of Laboratory Animal Care (NIH Publication No. 80-23; revised 1978) and the Animal Care and Use Guidelines of KyungHee University, Seoul, Korea (approval number: KHUASP(SE)-18-130). Mice were anesthetized with tribromoethanol (20 μL/g of body weight, Sigma Aldrich, USA) and then, the whole brain was removed quickly. After the washing with 0.1 M PBS, the brain tissue was excised by scissors and homogenized with a pellet pestles cordless motor (Sigma Aldrich, USA) in 2 mL of 0.1 M PBS (pH 7.4). The mixture was centrifuged at 1,000 g (Smart R17 Plus centrifuge, Hanil Scientific, Korea) for 15 min at 4° C. and the supernatant was collected. The pooled brain homogenates of 3 mice were collected and diluted to a final volume of 6 mL with PBS and used for fluorescence studies.

Data set [8] in a line: Solubility of IRI-1 in PBS (absorbance at 405 nm). The following applies: aqueous buffer, kinetic from dmso stock, PBS containing 2% DMSO, read-out: concentration up to which the dye exists as a monomer in PBS, above which soluble aggregates form. The class given is physicochemical. Here is the method:
The absorbance of IRI-1 at different concentrations in the 0-50 μM range was recorded at 405 nm in a PBS solution containing 2% DMSO. Deviation from linearity indicates the formation of aggregates.

The target in the next data set is T5, Aβ fibrils (Aβ1-42) (Homo sapiens, UniProt P05067).
T5 construct: lyophilized Aβ1-42 peptides were dissolved in 100% HFIP; purchased GenicBio Limited (Shanghai, China)
Description: Aβ1-42 saturation titration (fluorescence at 566 nm). Type of data set: binding. Here is the method: as §2
Both Aβ1-42 and IRI-1 are virtually non-fluorescent, and a simplified formula can be used where the fluorescence intensity is directly proportional to the concentration of the (Aβ1-42-IRI-1) complex only:
With F: a fluorescence proportionality factor, [IRI1]: the initial concentration of IRI-1, [Aβ]: the initial concentration of Aβ1-42, N: the number of equivalent binding sites on the Aβ fibril relative to Aβ monomer, and Kd: the dissociation constant.
The results in FIG. 1D were obtained following a multi-parameter optimization of the experimental results following the fluorescence intensity at 566 nm, using a concentration of 10 μM Aβ1-42 and incremental concentrations of IRI-1 in PBS containing 2% DMF. The slit width was set at 3/3. The best fittings were obtained for N=¼, i.e. one binding site per 4 Aβ1-42, consistent with the hypothesized high affinity cross-β-sheet binding site on the protein fibril.

Data set [9] in a line: BBB-penetrability PAMPA assay.
Description: (§3) The BBB-PAMPA was conducted following the manufacturer's instructions (pION, Inc, MA, USA). […] The transmembrane side to the donor part was coated with BBB-lipid solution and 200 μL acceptor buffer was added in the upper chambers of the PAMPA sandwich plate. After incubation for 4 h at 25° C., all samples were transferred to a new U.V plate and then the U.V spectra were measured at a wavelength from 250 nm to 498 nm with a multifunctional microplate reader (Tecan, Infinite M200 Pro, San Jose, Calif., USA) and the permeability rate (Pe, 10^−6 cm/s) was determined using pION PAMPA Explorer software (ver3.8).
Setting [10] is: pH 7.4, Permeability classification.

T5 sequence (P05067 672-713 limits assumed): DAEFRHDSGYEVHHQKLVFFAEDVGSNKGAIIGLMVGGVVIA
T1 sequence (P05067 672-713 limits assumed): as above
T3 sequence (P05067 672-713 limits assumed): as above
T4 sequence (P02769 25-607): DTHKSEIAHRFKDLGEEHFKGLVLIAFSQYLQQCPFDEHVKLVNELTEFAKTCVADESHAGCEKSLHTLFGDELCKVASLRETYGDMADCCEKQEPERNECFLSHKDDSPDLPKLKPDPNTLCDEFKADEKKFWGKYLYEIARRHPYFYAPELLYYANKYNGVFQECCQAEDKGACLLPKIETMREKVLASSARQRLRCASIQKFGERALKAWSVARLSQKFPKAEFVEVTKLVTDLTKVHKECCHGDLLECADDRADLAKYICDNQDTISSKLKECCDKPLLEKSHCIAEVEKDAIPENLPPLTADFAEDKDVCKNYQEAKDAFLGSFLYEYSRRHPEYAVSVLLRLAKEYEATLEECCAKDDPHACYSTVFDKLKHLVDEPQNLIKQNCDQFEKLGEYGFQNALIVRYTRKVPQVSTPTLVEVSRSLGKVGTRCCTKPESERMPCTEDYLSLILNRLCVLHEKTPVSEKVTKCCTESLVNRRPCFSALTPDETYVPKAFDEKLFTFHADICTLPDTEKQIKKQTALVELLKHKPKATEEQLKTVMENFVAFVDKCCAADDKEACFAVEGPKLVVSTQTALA
T2 sequence (P02768 25-609): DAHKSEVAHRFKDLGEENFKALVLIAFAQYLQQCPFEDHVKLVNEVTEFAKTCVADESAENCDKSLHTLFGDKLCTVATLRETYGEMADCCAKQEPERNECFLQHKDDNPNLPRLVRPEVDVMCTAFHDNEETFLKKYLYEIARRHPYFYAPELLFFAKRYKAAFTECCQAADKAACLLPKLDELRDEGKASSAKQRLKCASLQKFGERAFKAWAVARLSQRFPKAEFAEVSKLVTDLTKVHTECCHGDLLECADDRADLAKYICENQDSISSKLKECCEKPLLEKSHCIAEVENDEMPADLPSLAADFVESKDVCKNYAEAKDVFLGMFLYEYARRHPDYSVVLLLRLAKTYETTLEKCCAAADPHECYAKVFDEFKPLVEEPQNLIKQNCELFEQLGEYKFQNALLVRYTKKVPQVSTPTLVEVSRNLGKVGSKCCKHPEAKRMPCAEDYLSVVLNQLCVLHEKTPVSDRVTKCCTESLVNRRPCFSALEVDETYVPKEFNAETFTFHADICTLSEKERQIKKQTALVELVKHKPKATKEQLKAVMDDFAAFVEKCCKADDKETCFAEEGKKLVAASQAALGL
Description for in vitro: as §3

On to `CC(=O)[C@H]1CC[C@H]2[C@@H]3CCC4=CC(=O)CC[C@]4(C)[C@H]3CC[C@]12C` [Progesterone, reference compound], for which the apparent permeability coefficient (Papp) at 4 h in “in vitro” (pH 7.4, Pe) was 39.5 ± 5.59 ×10⁻⁶ cm/s; in the data set “in vitro” (setting [10]), over 0.4 ×10⁻⁶ cm/s.

As to `CN(C)c1ccc(-c2ccc3cc(C#N)c(=N)oc3c2)cc1` [IRI-1], the “fluorescent response to potential interferants” value in data set [1] was “no or negligible fluorescence enhancement”. For the same molecule, the Papp at 4 h in “in vitro” (pH 7.4, Pe) is 0.562 ± 0.053 ×10⁻⁶ cm/s; in the data set “in vitro” (setting [10]), over 0.4 ×10⁻⁶ cm/s. At Aβ plaques [2], the “signal-to-background ratio, elevation compared to IBC-2” value is listed as “approximately 3.75 fold”. In data set [3], this molecule came in with a pKa of 4.22 ± 0.12. Besides, the cytotoxicity entry in the data set with SH-SYSY cells was “no significant toxicity”. In addition, in data set [4], the “fluorescence enhancement in the presence of HSA” value was “only relatively weak fluorescence enhancement”. For the same molecule, the resistance to photobleaching result in “Photostability in DMF” is recorded as “relatively high resistance to photobleaching”. In addition, at Aβ fibrils, the “fluorescence enhancement in the presence of Aβ fibrils” value is 167 fold. In addition, the BBB penetration entry on Aβ plaques [5] (5 mg kg^−1 i.p.) is on record as “good BBB penetration”. In addition, the “time to full saturation of fluorescence enhancement of Aβ plaques in the frontal cortex” value at Aβ plaques [5] (5 mg kg^−1 i.p., excitation 920 nm) is on record as “approximately 40 min”. At Aβ plaques [5] (3D two-photon imaging, 5 mg kg^−1 i.p.), the “depth up to which individual Aβ plaques could be detected” value is at most 172. For the same molecule, the “overlap of images with co-administered MeO-X04” value at Aβ plaques [5] (co-administration, frontal cortex) is “near perfect overlap”. Moreover, the “fluorescence enhancement in the presence of BSA” value in data set [6] is “only relatively weak fluorescence enhancement”. The “fluorescence enhancement in the presence of mouse brain homogenates” value in [7] was “only relatively weak fluorescence enhancement”. In data set [8], the solubility amounted to 4.7 µM (≈ 1.36 µg/mL). In addition, at Aβ fibrils (Aβ1-42) (Aβ fibrils 10 μM, IRI-1 0-50 μM, PBS containing 2% DMF, nonlinear fitting, read-out: binding affinity toward Aβ fibrils, Kd), the Kd was determined as 374 ± 115 nM. Also, the “N, number of equivalent binding sites on the Aβ fibril relative to Aβ monomer” value on Aβ fibrils (Aβ1-42) (best fitting, one binding site per 4 Aβ1-42) is reported as “¼”. Further, the “binding affinity relative to that previously reported for ThT” value at Aβ fibrils (Aβ1-42) (versus literature value for ThT) is recorded as “two- to three-folds stronger”.

With `Cc1ccc2c(c1)sc(-c1ccc(N(C)C)cc1)[n+]2C.[Cl-]` [Thioflavin T], at Aβ fibrils, the “fluorescence enhancement in the presence of Aβ fibrils” value was determined as 20 fold. Moreover, the Permeability classification entry in data set [9] was “Not permeable”. Moreover, the Pe in data set [9] (pH 7.4, 4 h at 25° C., mean and standard deviation, n = 3) is listed as 0^c 10^−6 cm/s.
